According to US7069876B2, “Methods for raising pre-adult anadromous fish” (MariCal, Inc., priority 2000, dated 2006):

Test system: shark kidney calcium receptor (SKCaR)
Assay: FURA-2 ratio imaging fluorescence assay in HEK cells expressing SKCaR
Assay type: cell-based, dogfish (Squalus acanthias)
Conditions: 10 mM amino acid or AA Mixture; extracellular Ca2+ 0.5–20 mM (FIG. 52)
Description: Full length recombinant dogfish (Squalus acanthias) shark kidney calcium receptor ([…] NO.: 17) was expressed in human embryonic kidney […] ligated into the mammalian expression vector […] and transfected into HEK cells using standard techniques. The presence of SKCaR protein in transfected cells was verified by western blotting. Activation of SKCaR and its ability to respond to individual amino acids or mixtures thereof was quantified using a well characterized FURA-2 ratio imaging fluorescence assay where increases in intracellular Ca^2+ produced by SKCaR activation are detected and expressed as % normalized intracellular calcium response to receptor activation. Bai, M., S. et al., J. Biol. Chem., 32:19537-19545 (1996); Conigrave, A, et al., Proc. Nat. Acad. Sci. 97:4814-4819 (2000). […] Baseline extracellular Ca^2+ concentration was 0.5 mM. Aliquots of Ca^2+ were added to produce final extracellular concentrations of 2.5 mM, 5 mM, 7.5 mM, 10 mM and 20 mM Ca^2+ with changes in the fluorescence recorded.

## CC[C@H](C)[C@H](N)C(=O)O [Ile, L-Isoleucine]
  effect on SKCaR's response to extracellular Ca2+: increase SKCaR's response to a given Ca^2+ concentration

## N[C@@H](Cc1ccccc1)C(=O)O [Phe, Phenylalanine]
  effect on SKCaR's response to extracellular Ca2+: increase SKCaR's response to a given Ca^2+ concentration
